# Experimental data reported in patent US20060166271A1, “Non-radioactive schilling test” (priority 2003, published 2006).
# Where “and” joins values, the source holds several entries; their conditions need not be identical. Identical values can stand only once.
# Key:
# [1] = Vitamin B12 absorption from serum vitamin B12, total TC and holo-TC before and after oral vitamin B12, healthy subjects; assay type: in vivo, human; settings: for Holo-TC, median: serum
# Text: (§1) The subjects participating in the study were 31 healthy subjects recruited in October 2002. None of them suffered from known disorders related to vitamin B12 deficiency. Persons with chronic systemic disease, persons taking any kind of medical treatment, including vitamin tablets within the past week and persons not being able to give written informed consent were excluded. The age of the healthy subjects ranged from to 25 to 57 (mean 40) years. There were 9 men and 22 women. We further included seven patients (age 22-39 years, five men and two women) who had been referred to the out-patient clinic of internal medicine department during 2003 because vitamin B12 malabsorption was suspected. Three of the seven patients have previously been diagnosed as Crohn's disease. The diagnosis of the remaining four patients was not clear. Written informed consent was obtained from all subjects, and the Research Ethics Committee of Aarhus County approved the study protocol (2002.0224).
# The absorption of vitamin B12 was evaluated from analysis of serum vitamin B12, total TC, and holo-TC on samples obtained before and after oral administration of vitamin B12.
# (§2) In healthy subjects samples were taken at 8:00 a.m. on the day before vitamin B12 intake (−1) and on day 0, 1, 2, and 6. After the blood sample was removed on day 0, an oral dose of 9 μg vitamin B12 (Natur Drogeriet A/S, Hoerning, Denmark) was given three times, with 6 h between the doses (8 a.m., 2 p.m., and 8 p.m. (time points were allowed to deviate ±45 min). One healthy subject was unavailable for delivering a blood sample on day 6. The absorption of vitamin B12 in seven patients was evaluated by the Schilling test I and by the design mentioned above except that the blood samples were obtained only on day 0 and day 1. The Schilling test I was performed after our alternative approach.
# The vitamin B12 tablets were given with either water or orange juice. The subjects were allowed to have a light breakfast 30 to 60 min before blood sampling, not including any diary products, but were otherwise allowed to eat their normal diet. The blood samples were centrifuged within 60 minutes and were stored at −80° C. until further processed.
# Serum vitamin B12 was determined by a commercial method (Bayer corporation, NY) on a Centaur equipment (analytical imprecision<10%). Serum total TC and holo-TC were measured by ELISA as recently described (Nexø et al., 2000; 2002), but modified to allow the use of an automated ELISA analyser (BEP-2000, Dade Behring, Germany). The following modification was performed; all incubations were performed at 37° C. The analytical imprecision was 7% for total TC (mean=934 pmol/L, n=91) and 8% for holo-TC (mean=38 pmol/L, n=41). The controls were run over 12 months for total TC and 6 months for holo-TC. The reference interval was established from analysing 161 samples obtained from healthy blood donors (age interval; 21-65). The reference interval was 700-1400 pmol/L for total TC, ≧50 pmol/L for holo-TC and ≧0.05 for TC saturation. Haematological parameters were analysed on the Coulter Counter (Beckman Coulter CA). Plasma creatinine was measured using the Jaffe method and a Roche Cobas integra 700 autoanalyzer (analytical imprecision <3%).
# Alterations (increase or decrease) in parameters as a function of time were analysed by comparing the changes obtained on the same individuals relative to baseline (day 0) with the theoretical median “0” assigned for day 0. […] P-values <5% were regarded as statistically significant. Data were analysed using SPSS10.0 (SPSS Inc.) and the GraphPad (Prism2) software.
# [2] = Vitamin B12 absorption from serum holo-TC and TC saturation before and after oral vitamin B12, patients with suspected malabsorption; assay type: in vivo, human; settings: individual patients with Crohn's disease, day 1-day 0, oral 3 times 9 μg
# Text: as §1, with “The diagnosis of the remaining four patients was not clear. Written informed consent was obtained from all subjects, and the Research Ethics Committee of Aarhus County approved the study protocol (2002.0224).” left out
# The absorption of vitamin B12 was evaluated from analysis of serum vitamin B12, total TC, and holo-TC on samples obtained before and after oral administration of vitamin B12. […]
# Serum vitamin B12 was determined by a commercial method (Bayer corporation, NY) on a Centaur equipment (analytical imprecision<10%). Serum total TC and holo-TC were measured by ELISA as recently described (Nexø et al., 2000; 2002), but modified to allow the use of an automated ELISA analyser (BEP-2000, Dade Behring, Germany). […] Haematological parameters were analysed on the Coulter Counter (Beckman Coulter CA). […]
# [3] = Schilling test I (urinary excretion of radioactive vitamin B12 over 24 hours); assay type: in vivo, human; settings: individual patients with Crohn's disease; 1 μg oral Co-57 tagged vitamin B12, 24 hour urine; normal 10-40%
# Procedure: as §2
# The Schilling test I was performed as described previously (Chanarin, 1979). Briefly, a fasting patient is given a 1 μg oral dose of vitamin B12, which is tagged with radioactive cobalt (Co-57). Two hours after the oral dose the patient is then injected intramuscularly with 1000 μg of non-labeled vitamin B12. A 24 hour urine collection is initiated. The percentage of the administered dose excreted in the urine over 24 hours is then determined. Urinary excretion of 10-40% of the administered dose is considered normal.
# [4] = oral dose; cited from earlier work
# [5] = DAY 1 after oral 3 times 9 μg vitamin B12, 31 healthy subjects
# [6] = DAY 2 after oral 3 times 9 μg vitamin B12, 31 healthy subjects
# [7] = DAY 6 after oral 3 times 9 μg vitamin B12, 31 healthy subjects
# [8] = control subjects after omitting outliers (n=2)
# [9] = one day after oral dose of three times 9 μg, healthy subjects (discussion)
# [10] = relative to baseline (day 0), oral 3 times 9 μg, healthy subjects
# [11] = relative to baseline (day 0), oral 3 times 9 μg, n=31 healthy subjects
substance,measurement,setting,value
cobalamin [vitamin B12],"Serum vitamin B12, median",[1]; [5],279 pmol/L
same,"TC saturation (holo-TC/total-TC), median",[1]; [5],0.13 fraction
same,"Holo-TC, median",[1]; [5],118 pmol/L
same,"Serum vitamin B12, median",[1]; [6],253 pmol/L
same,"TC saturation (holo-TC/total-TC), median",[1]; [6],0.11 fraction
same,"Holo-TC, median",[1]; [6],87 pmol/L
same,"Serum vitamin B12, median",[1]; [7],260 pmol/L
same,"TC saturation (holo-TC/total-TC), median",[1]; [7],0.09 fraction
same,"Holo-TC, median",[1]; [7],80 pmol/L
same,Minimum increase for TC saturation (day 1-day 0),[1]; [8],0.02
same,Minimum increase for holo-TC (day 1-day 0),[1]; [8],15 pmol/L
same,"Increase of TC saturation, median value",[1]; [9],around 50%
same,"Increase of holo TC, median value",[1]; [9],around 50%
same,"Absolute increase in serum vitamin B12, median (range)",[1]; [10],36 (−27-290) pmol/L
same,"Percentage increase in serum vitamin B12, median (range)",[1]; [10],14 (−8-+51) % and 14%
same,"Maximal absolute increase in TC saturation, median (range)",[1]; [11],0.04 (0-0.23) fraction
same,"Maximal absolute increase in holo-TC, median (range)",[1]; [11],34 (0-149) pmol/L
same,"Maximal percentage increase in TC saturation, median (range)",[1]; [11],52 (−2-+128) %
same,"Maximal percentage increase in holo-TC, median (range)",[1]; [11],39 (0-+108) %
same,Increase in TC saturation after vitamin B12 intake,[2],0.004 and 0.01 (2×)
same,Increase in holo-TC after vitamin B12 intake,[2],3 pmol/L and 7 pmol/L and 14 pmol/L
same,"Schilling test I, percentage of vitamin B12 excreted in the urine",[3],2% and 10% and 15%
same,Refractory phase with less absorption after ingestion of a dose,[4],about 3 hours
